Measured values as given in PubChem BioAssay (NCI).
Where “and” joins values, the source holds several entries; their conditions need not be identical. Equal entries are not always repeated.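 Five concentrations, 48 hours, 96-well plates. GI50 is the concentration that inhibits growth by half. TGI denotes the concentration required for complete inhibition of growth.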 Where a SMILES comes first, the peptide text is derived from it. [ ]: non-standard residue; d: D form. 2Nal = N[CH](Cc1ccc2ccccc2c1)C(=O)O

Tests used:
Test in all cases: NCI tumour cell line growth inhibition, 48 h
KM20L2 colon = test system: KM20L2 colon
SNB-78 CNS = test system: SNB-78 CNS
DLD-1 colon = test system: DLD-1 colon
LXFL 529 NSCLC = test system: LXFL 529 NSCLC
DMS 114 small cell lung = test system: DMS 114 small cell lung
M19-MEL melanoma = test system: M19-MEL melanoma
MDA-N = test system: MDA-N
XF 498 CNS = test system: XF 498 CNS
RXF-631 renal = test system: RXF-631 renal
P388/ADR leukemia = test system: P388/ADR leukemia
P388 leukemia = test system: P388 leukemia
SN12K1 renal = test system: SN12K1 renal

| Compound | TGI (KM20L2 colon) [µM] | TGI (SNB-78 CNS) | TGI (DLD-1 colon) [µM] | TGI (LXFL 529 NSCLC) [µM] | TGI (DMS 114 small cell lung) | TGI (M19-MEL melanoma) | TGI (MDA-N) [µM] | TGI (XF 498 CNS) [µM] | TGI (RXF-631 renal) [µM] | also measured |
| --- | --- | --- | --- | --- | --- | --- | --- | --- | --- | --- |
| Cc1ccc(/C=C(\C#N)c2ccccc2)cc1 | > 100 | > 100 µM | > 100 | > 100 | > 100 µM | > 100 µM |  |  |  |  |
| C=C1C(=O)OC2CC3(C)CCCC(C)C3=CC12 (stereo not given) |  |  |  |  |  |  | 11.4 |  |  |  |
| COCOCC[C@@H]1CC=CC(NC(=O)OCc2ccccc2)C1/C=C/C(=O)CCC1OCCO1 (stereo not given in full) | > 93.3 | > 100 µM | 33.4 | 73 | 86.5 µM | 43.3 µM |  | > 100 |  |  |
| COC(=O)C(C(=O)C(=O)Nc1ccc(OC)cc1[N+](=O)[O-])c1nc2cc(C)c(C)cc2[nH]c1=O (stereo not given) | > 100 | > 100 µM | > 100 | > 100 | > 100 µM | > 100 µM |  |  | > 100 |  |
| C1CCN2CC3CCCN4CCCC(C2C1)C34 (stereo not given) |  |  |  |  |  |  | > 100 |  |  |  |
| O=c1c(-c2ccc(O)cc2)coc2cc(OC3OC(CO)C(O)C(O)C3O)cc(O)c12 (stereo not given) |  |  |  |  |  |  | > 100 |  |  |  |
| CC(C)(C)c1ccc(O)c(CN(Cc2cc(C(C)(C)C)ccc2O)C2CCCCC2)c1 |  |  |  |  |  |  | 28.1 |  |  |  |
| Cc1nc(Nc2ccccc2)sc1C(=O)CC(=O)C(=O)NC12CC3CC(CC(C3)C1)C2 | > 100 | > 100 µM | > 100 | > 100 | > 100 µM | > 100 µM |  | > 100 |  |  |
| NNC(=O)N/N=C1\C(=O)N(c2nccs2)C(=O)C(=O)C1c1nc2ccccc2s1 (stereo not given) | > 100 | > 100 µM | > 100 | > 100 | > 100 µM | > 100 µM |  | > 100 | > 100 |  |
| NC(=Nc1nc(-c2ccccn2)cc2ccccc12)c1ccccn1 | > 100 | > 100 µM | 0.378 | > 100 |  | 0.953 µM | > 100 | 0.0644 | 0.244 | GI50 (MDA-N): 0.445 µM; GI50 (M19-MEL melanoma): 0.199 µM |
| CCOC(=O)NC(=O)c1cn(CCN2CCNCC2)c(=O)[nH]c1=O |  | > 100 µM | > 100 | > 100 | > 100 µM | > 100 µM |  | > 100 |  |  |
| OC1CCC[C@@H]1Sc1ccccc1 (stereo not given in full) | > 100 | > 100 µM | > 100 | > 100 | > 100 µM | > 100 µM |  | > 100 | > 100 |  |
| CC(=O)NC(CCCCN(Cc1ccccc1)C(=O)N(CCCl)N=O)C(=O)NCc1ccccc1 (stereo not given) | > 69.5 | > 100 µM | > 79 | > 100 | > 100 µM | > 100 µM | 36.3 | > 49.8 |  |  |
| COC(=O)C(=O)C(C(=O)C(=O)Nc1ccc(C)cc1)c1nc2ccc(C(=O)c3ccccc3)cc2[nH]c1=O (stereo not given) |  |  |  |  |  |  | > 100 |  |  |  |
| CC1=C2[C@H](c3ccccc3)C3C=CC2(c2ccccc23)N(C(=O)C(c2ccccc2)c2ccccc2)C1=O (stereo not given in full) | > 100 |  | > 100 | > 100 | > 100 µM | > 100 µM |  | > 100 |  |  |
| COC(=O)C(=O)C(C(=O)C=C(C)C)C(=O)C(=O)Nc1nc2ccc([N+](=O)[O-])cc2s1 (stereo not given) | > 100 | > 100 µM | > 100 | > 100 | > 100 µM | > 100 µM |  |  |  |  |
| NNC(=S)Nc1cccc(Cl)c1 |  |  |  |  |  |  | > 100 |  |  |  |
| CCN(CC)CC(C)(C)C(=O)/C=C/c1ccc(/C=C/C(=O)C(C)(C)CN(CC)CC)cc1 | 2.51 | 4.64 µM | 1.26 | 0.417 | 0.876 µM | 4.23 µM | 1.66 | 1.03 |  |  |
| CC(=O)O/N=C(Cl)/C(Cl)=N/OC(C)=O | > 100 | > 100 µM | > 100 | > 100 | > 100 µM |  |  | > 100 |  |  |
| CC1CC(C)C2=NOS3=C2C1=NO3 (stereo not given) |  |  |  |  |  |  | > 100 |  |  |  |
| Cc1cc(C)nc(NS(=O)(=O)c2ccc(NC(=O)c3ccc(Cl)c4c(Nc5ccc(S(=O)(=O)N=C(N)N)cc5)c5ccccc5nc34)cc2)n1 | > 100 | > 100 µM |  | > 100 | 93.6 µM |  |  | > 100 |  |  |
| COc1cc(CC(C(=O)O)C(=O)O)c(OC)cc1CC(C(=O)O)C(=O)O | > 100 | > 100 µM | > 100 | > 100 | > 100 µM | > 100 µM |  | > 100 |  |  |
| Nc1nc(N)c(N=Nc2ccc(C(=O)O)c(O)c2)c(N)n1 |  |  |  |  |  |  | > 100 |  |  |  |
| Cc1ccc(NC(=O)CC/C(CC(=O)C(C)(C)C)=N\Nc2ccc([N+](=O)[O-])cc2[N+](=O)[O-])cc1C | > 100 | > 100 µM | > 100 | > 100 | > 100 µM | > 100 µM |  |  | > 100 |  |

| Compound | TGI (KM20L2 colon) [µM] | TGI (SNB-78 CNS) | TGI (DLD-1 colon) [µM] | TGI (LXFL 529 NSCLC) [µM] | TGI (DMS 114 small cell lung) | TGI (M19-MEL melanoma) | TGI (MDA-N) [µM] | TGI (XF 498 CNS) [µM] | TGI (RXF-631 renal) [µM] | also measured |
| --- | --- | --- | --- | --- | --- | --- | --- | --- | --- | --- |
| O=C1C(=O)N(c2cccc(C(F)(F)F)c2)C(=O)C(=O)C1c1nc2ccccc2s1 | > 100 | > 100 µM | > 100 | > 100 | > 100 µM | > 100 µM | > 100 | > 100 | > 100 |  |
| CN(C)CCNC(=O)c1cccc2ncc(-c3ccccc3)nc12 | 38 | 40 µM | 44.9 | 53.7 | 26.6 µM | 29.5 µM |  |  | > 82.5 |  |
| Cc1c(C2Cc3ccccc3N2)c2ccccc2n1C (stereo not given) | > 100 | > 100 µM | > 100 | > 100 | > 100 µM | > 100 µM |  | > 100 |  |  |
| CC(=O)ON(C(C)=O)C1C(COC(c2ccccc2)(c2ccccc2)c2ccccc2)OC2OC3(CCCC3)OC21 (stereo not given) | > 100 |  | > 100 |  | > 100 µM | > 100 µM |  | > 100 |  |  |
| O=C1[C@H](Cl)[C@H]2c3cc4ccccc4nc3Oc3ccccc3N12 | > 100 |  | > 100 | > 100 | 70.2 µM | > 100 µM |  |  |  |  |
| COc1ccc(NC(=O)CCc2cc(C(C)(C)C)n[nH]2)cc1 | > 100 | > 100 µM |  | > 100 |  | > 100 µM |  | > 100 | > 100 |  |
| CN(C)CCC1(C2=CCCC2)CC/C(=C\c2ccccc2Cl)C1=O (stereo not given) | 24.6 | 29 µM | 37.4 | 23.9 | 29.5 µM | 54.1 µM |  |  | 28.1 |  |
| CC(=N)N(C)O | > 100 | > 100 µM | > 100 | > 100 | 33.2 µM | > 100 µM |  | > 100 | > 100 |  |
| CC(C)C(NC(=O)C(CCCCN)NC(=O)C(Cc1c[nH]c2ccccc12)NC(=O)C(Cc1ccc(O)cc1)NC(=O)C(CS)NC(=O)C(N)Cc1ccc2ccccc2c1)C(=O)NC(CS)C(=O)NC(C(N)=O)C(C)O (stereo not given) (H-[2Nal]CYWKVCT-NH2; configuration not given here) | > 100 | 23.2 µM | > 100 | > 100 | > 100 µM | > 100 µM | > 12.5 | > 100 | > 100 |  |
| CC(CCCC1SCC2NC(=O)NC21)C(=O)O (stereo not given) |  |  |  |  |  |  | > 100 |  |  |  |
| CCCCCCCCCCCCCC(=O)OCC1OC(n2cc(F)c(=O)[nH]c2=O)C(N)C(OC(=O)CCCCCCCCCCCCC)C1O (stereo not given) | > 100 | > 100 µM |  | > 100 | > 100 µM | > 100 µM |  |  |  |  |
| COc1cc(/C=C\c2ccc(OC(C)=O)cc2)cc(OC)c1OC | > 100 | 84.1 µM | > 100 | > 100 | > 100 µM | > 100 µM |  | 82.9 | > 100 |  |
| O=C(O)CCSC(=O)Nc1ccccc1Cl | > 100 | > 100 µM | > 100 | > 100 | > 100 µM | > 100 µM |  | > 100 | > 100 |  |
| COC(=O)C1=C(C(=O)OC)C2OC1c1cc3ccccc3cc12 |  |  |  |  |  |  | 17.5 |  |  |  |
| CN(O)C(=S)c1ccccc1 | > 100 | > 100 µM | 4.52 | > 23 | 4.12 µM | 4.68 µM | > 20.5 | > 100 | 2.92 |  |
| COc1ccc(/C=c2/sc3n(c2=O)NC(c2ccc(Cl)cc2)NN=3)cc1 (stereo not given) | > 100 | > 100 µM | > 100 | > 100 | > 100 µM | > 100 µM |  | > 100 |  |  |
| CC1CCc2c(c(CC3CC(=O)NC(=O)C3)nn2-c2ccccc2)C1 (stereo not given) |  |  |  |  |  |  | > 100 |  |  |  |
| C/C(CCn1[nH]c(=O)ccc1=O)=N\Nc1ccc([N+](=O)[O-])cc1[N+](=O)[O-] | > 100 | > 100 µM | > 100 | > 100 | > 100 µM | > 100 µM |  | > 100 | > 100 |  |
| C#CCN(N=O)C(=O)NCCCC(NC(C)=O)C(=O)NCc1ccccc1 (stereo not given) | > 100 | > 100 µM | > 100 | > 100 | > 100 µM | > 100 µM |  | 84.4 | > 100 |  |
| N#Cc1cc(NC(=O)c2ccccc2)c(=O)n2c1[nH]c1ccccc12 | > 100 | > 100 µM | > 100 | > 100 | 95.5 µM | > 100 µM |  | > 100 | > 100 |  |
| Nc1ccc2c(c1)Oc1c(F)c(F)cc3c(=O)c(C(=O)O)cn-2c13 | > 100 |  | > 100 | > 100 | > 100 µM | > 100 µM |  |  |  |  |
| COc1ccc(/C=C\c2cc(OC)c(OC)c(OC)c2)c(O)c1O | 76.9 | > 89.6 µM and 48.5 µM | > 85.8 | 12.8 | 3.92 µM and 0.568 µM | 17.8 µM and 11.2 µM | < 0.0304 |  |  | GI50 (KM20L2 colon): 26.6 µM; GI50 (XF 498 CNS): 2.95 µM; GI50 (SNB-78 CNS): 1.86 µM; TGI (P388/ADR leukemia): 23.4 µM; GI50 (DLD-1 colon): 1.52 µM; GI50 (DMS 114 small cell lung): 0.196 µM; TGI (P388 leukemia): 4.57 µM; TGI (SN12K1 renal): 1.08 µM; GI50 (M19-MEL melanoma): 1.42 µM |
| C=C1NC(=O)C(CC(C(=O)C(=O)Nc2c(C)cccc2C(C)(C)C)C(=O)c2ccc3ccccc3c2)C(=O)N1 (stereo not given) |  |  |  |  |  |  | > 100 |  |  |  |
| CC(O)CN1c2ccccc2Sc2ccc(Cl)cc21 (stereo not given) |  |  |  |  |  |  | > 10 |  |  |  |
